The test system of assay [1] is d-amphetamine induced stimulation. As to conditions: injected into rat nucleus accumbens or striatum; cited from earlier work.
The test system of assay [2] is PCP and MK801-induced behavioral arousal. As to conditions: in vivo; cited from earlier work.
Assay [3] concerns the target T1, NMDA receptor subunits 1A/2A (Rattus norvegicus, UniProt P35439+Q00959).
T1 construct: expressed in transfected cells; host or cells: Xenopus laevis oocytes (cRNA injection; clones from Dr. P. H. Seeburg)
Briefly: Electrophysiological assay at NMDA receptor subunits expressed in Xenopus oocytes, 1A/2A. Type of assay: cell-based. As to conditions: glutamate 100 μm and glycine 1-100 μm. In a few lines:
(§1)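 Two-electrode voltage clamp of Xenopus oocytes injected with rat NR1A plus NR2A, 2B or 2C cRNA (1:1), recorded 3–21 days post-injection in Ringer's, pH 7.4. Currents evoked by glutamate (100 μm) with glycine (1–100 μm); antagonist applied by bath perfusion at rising concentrations, IC50 from logistic fit or linear regression for incomplete curves.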

Assay [4] deals with T2, NMDA receptor subunits 1A/2B (Rattus norvegicus, UniProt P35439+Q00960).
T2 construct: expressed in transfected cells; host or cells: Xenopus laevis oocytes (cRNA injection; clones from Dr. P. H. Seeburg)
T2 sequence (Q00960 27-1482, other chains not shown): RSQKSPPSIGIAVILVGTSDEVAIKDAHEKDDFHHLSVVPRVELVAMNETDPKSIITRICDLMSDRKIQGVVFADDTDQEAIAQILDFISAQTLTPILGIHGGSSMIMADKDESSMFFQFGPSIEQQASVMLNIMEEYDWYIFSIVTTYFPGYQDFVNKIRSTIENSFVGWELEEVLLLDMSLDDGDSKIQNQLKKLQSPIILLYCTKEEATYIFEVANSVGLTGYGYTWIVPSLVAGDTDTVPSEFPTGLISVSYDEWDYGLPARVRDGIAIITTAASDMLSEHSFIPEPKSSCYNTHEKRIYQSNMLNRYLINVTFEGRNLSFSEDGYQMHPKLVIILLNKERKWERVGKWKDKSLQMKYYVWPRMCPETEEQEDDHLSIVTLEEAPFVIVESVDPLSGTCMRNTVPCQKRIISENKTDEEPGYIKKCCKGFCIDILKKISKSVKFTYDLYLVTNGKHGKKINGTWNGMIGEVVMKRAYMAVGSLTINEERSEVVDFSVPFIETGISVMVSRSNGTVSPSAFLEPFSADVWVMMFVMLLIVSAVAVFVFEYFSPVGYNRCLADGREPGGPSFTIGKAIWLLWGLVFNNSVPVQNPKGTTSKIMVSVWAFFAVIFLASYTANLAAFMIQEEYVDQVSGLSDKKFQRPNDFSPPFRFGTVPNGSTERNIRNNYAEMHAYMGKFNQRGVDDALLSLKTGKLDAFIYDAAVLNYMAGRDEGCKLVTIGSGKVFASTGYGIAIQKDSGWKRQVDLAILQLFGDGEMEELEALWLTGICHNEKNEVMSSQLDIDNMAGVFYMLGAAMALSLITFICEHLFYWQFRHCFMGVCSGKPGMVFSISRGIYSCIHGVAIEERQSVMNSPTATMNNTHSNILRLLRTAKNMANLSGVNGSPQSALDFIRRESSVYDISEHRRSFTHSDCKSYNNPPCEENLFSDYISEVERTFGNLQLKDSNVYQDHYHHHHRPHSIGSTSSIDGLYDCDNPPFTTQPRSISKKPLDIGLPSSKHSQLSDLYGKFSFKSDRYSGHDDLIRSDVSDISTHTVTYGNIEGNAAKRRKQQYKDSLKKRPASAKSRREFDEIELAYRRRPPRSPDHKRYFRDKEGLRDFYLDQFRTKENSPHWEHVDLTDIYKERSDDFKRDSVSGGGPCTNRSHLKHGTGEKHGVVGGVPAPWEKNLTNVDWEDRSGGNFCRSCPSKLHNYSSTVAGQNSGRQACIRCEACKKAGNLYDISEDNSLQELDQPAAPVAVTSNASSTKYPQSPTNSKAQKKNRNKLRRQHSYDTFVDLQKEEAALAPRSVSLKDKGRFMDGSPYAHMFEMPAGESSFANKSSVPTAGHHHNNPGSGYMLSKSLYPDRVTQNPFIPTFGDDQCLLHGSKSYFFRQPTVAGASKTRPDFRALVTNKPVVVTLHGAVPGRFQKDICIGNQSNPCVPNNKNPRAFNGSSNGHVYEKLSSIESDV
Briefly: Electrophysiological assay at NMDA receptor subunits expressed in Xenopus oocytes, 1A/2B. In kind it is cell-based. As to conditions: Xenopus oocytes; glutamate 100 μm and glycine 1-100 μm; read-out: Subunits IC50, 1A/2B. In a few lines:
as §1

In assay [5] the target is T3, NMDA receptor subunits 1A/2C (Rattus norvegicus, UniProt P35439+Q00961).
T3 construct: expressed in transfected cells; host or cells: Xenopus laevis oocytes (cRNA injection; clones from Dr. P. H. Seeburg)
T3 sequence (Q00961 20-1237, other chains not shown): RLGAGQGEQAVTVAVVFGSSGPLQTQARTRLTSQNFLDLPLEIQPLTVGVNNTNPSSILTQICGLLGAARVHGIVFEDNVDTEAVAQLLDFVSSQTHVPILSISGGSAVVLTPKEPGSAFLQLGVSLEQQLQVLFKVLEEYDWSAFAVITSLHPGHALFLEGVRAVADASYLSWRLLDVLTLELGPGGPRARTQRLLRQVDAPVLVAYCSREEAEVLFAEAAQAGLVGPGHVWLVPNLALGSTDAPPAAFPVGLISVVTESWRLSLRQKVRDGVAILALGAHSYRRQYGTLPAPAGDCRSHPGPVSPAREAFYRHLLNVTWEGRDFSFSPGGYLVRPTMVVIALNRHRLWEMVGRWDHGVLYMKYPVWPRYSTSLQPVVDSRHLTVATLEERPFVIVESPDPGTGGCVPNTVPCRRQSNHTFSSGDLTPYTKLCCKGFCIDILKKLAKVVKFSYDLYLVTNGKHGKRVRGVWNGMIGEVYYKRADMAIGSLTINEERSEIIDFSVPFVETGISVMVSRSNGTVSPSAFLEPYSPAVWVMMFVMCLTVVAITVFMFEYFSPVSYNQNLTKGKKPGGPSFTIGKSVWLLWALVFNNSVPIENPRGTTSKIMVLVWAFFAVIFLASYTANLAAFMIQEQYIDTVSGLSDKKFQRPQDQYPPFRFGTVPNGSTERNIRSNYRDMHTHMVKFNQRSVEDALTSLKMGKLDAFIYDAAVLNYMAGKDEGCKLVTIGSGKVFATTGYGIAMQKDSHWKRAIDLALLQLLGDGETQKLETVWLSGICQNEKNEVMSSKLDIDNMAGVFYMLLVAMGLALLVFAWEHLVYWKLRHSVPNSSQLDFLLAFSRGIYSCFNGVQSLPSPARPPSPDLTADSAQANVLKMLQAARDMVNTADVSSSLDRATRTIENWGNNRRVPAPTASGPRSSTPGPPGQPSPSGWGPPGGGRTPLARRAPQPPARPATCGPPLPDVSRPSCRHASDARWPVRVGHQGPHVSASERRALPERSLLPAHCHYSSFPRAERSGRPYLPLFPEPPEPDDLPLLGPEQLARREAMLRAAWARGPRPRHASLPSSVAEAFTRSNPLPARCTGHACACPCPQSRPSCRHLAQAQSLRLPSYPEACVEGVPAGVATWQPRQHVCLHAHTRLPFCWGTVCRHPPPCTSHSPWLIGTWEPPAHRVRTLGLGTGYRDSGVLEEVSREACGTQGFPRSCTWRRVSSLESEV
Briefly: Electrophysiological assay at NMDA receptor subunits expressed in Xenopus oocytes, 1A/2C. Type of assay: cell-based. As to conditions: Xenopus oocytes; glutamate 100 μm and glycine 1-100 μm; read-out: Subunits IC50, 1A/2C. In a few lines: as §1

For assay [6], the system named is Maximal Electroshock-induced Seizures. Briefly: Maximal electroshock-induced seizures (MES). Type of assay: in vivo. As to conditions: Mus musculus; mice; 50 mA, 60 pulses/sec, 1 sec. On the technique in general: Protection in the maximal electroshock model is a classic sign of anticonvulsant action.
Text: Seizures were induced by application of current (50 mA, 60 pulses/sec, 0.8 sec pulse width, 1 sec duration, d.c.) through saline-coated corneal electrodes using a Ugo Basile ECT device (Model 7801). […] A tonic seizure was defined as a hindlimb extension in excess of 90 degrees from the plane of the body.
For assay [7], the system named is focal ischemia (MCA occlusion). Briefly: Induction of focal ischemia (MCA occlusion), infarct volume. In kind it is in vivo, rats. As to conditions: for Mean Infarct Volume: mean ± S.E.M. As to the method:
Induction of Focal Ischemia
Rats were intubated and maintained under anesthesia with 2% of halothane. Body temperature was maintained at 37.5° C. during surgery by means of a warming pad and a rectal probe connected to the control unit. The common carotid arteries (CCA) were isolated, and a loose silk ligature was placed around each CCA. A vertical skin incision was made between the left orbit and the auditory canal. The posterior part of the zygoma was removed and a small opening (2.0-2.5 mm) was drilled dorsorostrally to the foramen ovale under constant saline irrigation. The dura was opened with a microsurgical hook and the brain gently retracted to expose the bifurcation of the internal carotid artery and the middle cerebral artery (MCA). The ipsilateral CCA was ligated and the MCA coagulated from its origin to the olfactory tract. The contralateral CCA was occluded with an arterial clip. All cuts were sutured and an i.v. line was connected to an infusion pump for delivery of the compound of the invention. Two hours after MCA occlusion, the clip on the contralateral CCA was removed. Rectal temperature was measured 2 hours after MCA occlusion (MCA-0).

Another assay deals with micturition. As to conditions: rat; cited from earlier work.
In a further assay the test system is anxiety. As to conditions: in vivo; cited from earlier work.
The next assay has as its system Parkinson's disease. As to conditions: at plasma levels leading to NMDA receptor antagonism; cited from earlier work.

Structures can show the parent of a compound that is named as a salt.

T1 sequence (Q00959 20-1464 limits assumed, other chains not shown): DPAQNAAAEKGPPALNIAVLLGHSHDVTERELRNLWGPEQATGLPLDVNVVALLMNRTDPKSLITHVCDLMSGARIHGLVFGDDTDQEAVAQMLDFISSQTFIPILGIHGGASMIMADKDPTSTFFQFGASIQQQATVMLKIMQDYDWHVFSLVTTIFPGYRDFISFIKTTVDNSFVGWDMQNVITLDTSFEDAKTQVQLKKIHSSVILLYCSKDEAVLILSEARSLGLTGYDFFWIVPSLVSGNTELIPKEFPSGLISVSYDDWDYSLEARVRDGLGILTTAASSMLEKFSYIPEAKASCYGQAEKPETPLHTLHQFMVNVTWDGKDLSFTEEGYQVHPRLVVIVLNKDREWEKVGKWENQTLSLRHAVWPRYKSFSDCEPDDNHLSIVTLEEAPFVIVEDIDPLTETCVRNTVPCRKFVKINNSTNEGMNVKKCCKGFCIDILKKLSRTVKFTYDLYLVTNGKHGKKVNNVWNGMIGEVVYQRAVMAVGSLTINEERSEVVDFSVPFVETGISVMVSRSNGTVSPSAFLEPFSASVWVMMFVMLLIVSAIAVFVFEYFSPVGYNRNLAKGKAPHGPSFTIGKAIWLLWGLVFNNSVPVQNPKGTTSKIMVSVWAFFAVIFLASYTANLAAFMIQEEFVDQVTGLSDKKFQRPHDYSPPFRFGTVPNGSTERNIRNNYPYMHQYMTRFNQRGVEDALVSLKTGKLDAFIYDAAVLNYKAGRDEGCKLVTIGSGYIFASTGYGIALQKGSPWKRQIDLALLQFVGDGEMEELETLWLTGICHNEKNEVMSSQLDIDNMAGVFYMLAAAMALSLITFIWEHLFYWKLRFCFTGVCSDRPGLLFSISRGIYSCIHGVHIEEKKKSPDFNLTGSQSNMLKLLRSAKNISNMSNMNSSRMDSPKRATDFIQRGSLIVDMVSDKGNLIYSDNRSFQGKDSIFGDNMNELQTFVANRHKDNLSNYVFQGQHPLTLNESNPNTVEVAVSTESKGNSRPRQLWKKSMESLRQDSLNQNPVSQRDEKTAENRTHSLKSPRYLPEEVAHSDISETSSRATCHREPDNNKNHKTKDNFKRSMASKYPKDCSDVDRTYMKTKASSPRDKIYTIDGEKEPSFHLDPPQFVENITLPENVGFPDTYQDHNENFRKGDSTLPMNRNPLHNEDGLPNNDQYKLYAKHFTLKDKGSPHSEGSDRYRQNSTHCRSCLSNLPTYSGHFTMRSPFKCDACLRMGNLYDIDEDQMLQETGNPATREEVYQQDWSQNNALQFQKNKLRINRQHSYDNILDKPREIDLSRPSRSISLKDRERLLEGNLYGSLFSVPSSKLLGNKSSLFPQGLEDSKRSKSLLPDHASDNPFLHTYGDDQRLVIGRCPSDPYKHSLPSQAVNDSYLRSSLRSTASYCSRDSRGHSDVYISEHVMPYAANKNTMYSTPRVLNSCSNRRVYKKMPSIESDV

As for `O=C(O)c1cc(O)c2c(Cl)cc(Cl)cc2n1` [5,7-dichlorokynurenic acid], the “antagonism of d-amphetamine induced stimulation” value in assay [1] is “selectively antagonize d-amphetamine induced stimulation when injected into rat nucleus accumbens but not in striatum”.
Take `N[C@@H]1CCN(O)C1=O` [(+) HA-966]: the “antagonism of d-amphetamine induced stimulation” value in [1] is recorded as “selectively antagonize d-amphetamine induced stimulation when injected into rat nucleus accumbens but not in striatum”. The “block of PCP and MK801-induced behavioral arousal” value in [2] was “block PCP and MK801-induced behavioral arousal”.
With `c1ccc(CC2CCN(CCOc3ccccc3)CC2)cc1` [Ex. 1, 4-Benzyl-1-(2-phenoxyethyl)piperidine], the figures for the IC50 in [3], in [4] and in [5] were > 100 µM, 0.8 µM and > 100 µM, respectively. Besides, the 50% effect level in assay [6] (ED50) was put at a dose of 2 mg/kg. In addition, the “Mean Infarct Volume” value is reported as 50.450 ± 11.428 mm^3 in assay [7] (Cortex, rats, 2.5 mg/Kg i.v. bolus then 1.75 mg/Kg for 22 hours, n = 12, vehicle 120.450 ± 20.166) and 67.400 ± 6.775 mm^3 in assay [7] (Subcortex, rats, 2.5 mg/Kg i.v. bolus then 1.75 mg/Kg for 22 hours, n = 12, vehicle 74.462 ± 7.481). The “% of Ischemia Protection” value in [7] (Cortex, rats, 2.5 mg/Kg i.v. bolus then 1.75 mg/Kg for 22 hours, p = 0.0071) is on record as 58%; in assay [7] (Subcortex, rats, 2.5 mg/Kg i.v. bolus then 1.75 mg/Kg for 22 hours, p = 0.4936) it was 9.5%. Besides, the protection from ischemia result in [7] (table 4 and FIG. 1, 2.5 mg/Kg i.v. bolus then 1.75 mg/Kg for 22 hours) was “significant protection from ischemia”.
As to `Fc1ccc(OCCN2CCC(Cc3ccc(Cl)cc3)CC2)cc1` [Ex. 25, 4-(4-Chlorobenzyl)-1-(2-(4-fluorophenoxy)ethyl)piperidine hydrobromide], the IC50 in assay [3] is 60 µM; in assay [4], 1 µM; in assay [5], 80 µM. The 50% effect level in [6] (ED50) was put at a dose of 4 mg/kg. In addition, the “Mean Infarct Volume” value in assay [7] (Cortex, 10 mg/Kg i.v. bolus, n = 7, vehicle 114.936 ± 22.3) turned out to be 41.857 ± 19.984 mm^3; in [7] (Subcortex, 10 mg/Kg i.v. bolus, n = 7, vehicle 81.564 ± 5675) it was 43.343 ± 17.37 mm^3. The “% of Ischemia Protection” value in assay [7] (Cortex, 10 mg/Kg i.v. bolus, p = 0.0381) worked out at 64%; in assay [7] (Subcortex, 10 mg/Kg i.v. bolus, p = .0320) it was 47%. For the same compound, the protection from ischemia result in assay [7] (Table 5 and FIG. 2, 10 mg/Kg i.v. bolus) is listed as “significant protection from ischemia”.
As to `Cc1ccc(CC2CCN(CCOc3ccc(Cl)cc3)CC2)cc1.Cl` [Ex. 168, 1-(2-(4-Chlorophenoxy)ethyl)-4-(4-methylbenzyl)piperidine hydrochloride], the IC50 in assay [3] is > 300 µM; in [4] it was 9.5 µM; in assay [5], > 300 µM. In assay [6], the ED50 (in general, the midpoint of the dose-response relation) worked out at 4 mg/kg.
For `O=c1[nH]c2ccc(OCCCN3CCC(Cc4ccccc4)CC3)cc2[nH]1` [Ex. 170, 4-Benzyl-1-[3-(2-oxobenzimidazol-5-oxy)propyl]piperidine], the IC50 stood at 62 µM in assay [3], 0.04 µM in assay [4] and 230 µM in [5]. The ED50 in [6] turned out to be 10 mg/kg.
Turning to `S=c1[nH]c2ccc(OCCN3CCC(Cc4ccccc4)CC3)cc2[nH]1` [Ex. 171, 4-Benzyl-1-(2-(2-thioxobenzimidazol-5-oxy)ethyl)piperidine], the IC50 in assay [3] stood at 72 µM; in assay [4], 0.04 µM; in [5], 170 µM. Further, the ED50 in assay [6] stood at 5 mg/kg.
Turning to `Cc1ccc(CC2CCN(CCOc3ccc4[nH]c(=S)[nH]c4c3)CC2)cc1` [Ex. 174, 4-(4-Methylbenzyl)-1-(2-(2-thioxobenzimidazol-5-oxy)ethyl)piperidine], the IC50 in [3] came out at 35 µM; in assay [4], 0.03 µM; in [5], 45 µM. The ED50 in assay [6] stood at 5 mg/kg.
As for `Fc1ccc(CC2CCN(CCOc3ccc4[nH]c(=S)[nH]c4c3)CC2)cc1` [Ex. 175, 4-(4-Fluorobenzyl)-1-(2-(2-thioxobenzimidazol-5-oxy)ethyl)piperidine], the IC50 worked out at 48 µM in [3], 0.02 µM in assay [4] and 70 µM in assay [5]. Also, the ED50 in assay [6] was 8 mg/kg.
As to `S=c1[nH]c2ccc(OCCN3CCC(Cc4ccc(Cl)cc4)CC3)cc2[nH]1` [Ex. 176, 4-(4-Chlorobenzyl)-1-(2-(2-thioxobenzimidazol-5-oxy)ethyl)piperidine], the results for the IC50 in assay [3], in [4] and in [5] were 25 µM, 0.03 µM and 50 µM, respectively. This compound came in with an ED50 in assay [6] of 7.5 mg/kg.
For `O=c1[nH]c2ccc(OCCN3CC=C(Cc4ccccc4)CC3)cc2[nH]1` [Ex. 177, 4-Benzyl-1-(2-(2-oxobenzimidazol-5-oxy)ethyl)-1,2,5,6-tetrahydropyridine], the values for the IC50 in assay [3], in assay [4] and in [5] were 35 µM, 0.1 µM and 210 µM, respectively. The same compound gave an ED50 in assay [6] of 5 mg/kg.
For `O=c1[nH]c2cc(OCCN3CCC(Cc4ccccc4)CC3)ccc2o1` [Ex. 181, 4-Benzyl-1-(2-(2-oxobenzoxazol-5-oxy)ethyl)piperidine], the IC50 was 110 µM in [3], 1 µM in [4] and 140 µM in [5]. Besides, the ED50 in assay [6] is 6 mg/kg.
`O=c1[nH]c2ccc(OCCN3CCC(Cc4ccccc4)CC3)cc2o1` [Ex. 182, 4-Benzyl-1-(2-(2-oxobenzoxazol-6-oxy)ethyl)piperidine]: the IC50 in assay [3] amounted to 43 µM; in assay [4], 1 µM; in assay [5], 210 µM. For the same compound, in [6], the ED50 was > 20 mg/kg.
For the compound `Oc1ccc2cc(OCCN3CCC(Cc4ccccc4)CC3)ccc2c1` [Ex. 189, 4-Benzyl-1-(2-(2-hydroxynaphth-6-oxy)ethyl)piperidine], the IC50 in assay [3] amounted to 7 µM; in assay [4], 0.1 µM; in assay [5], 130 µM. The compound also gave an ED50 in assay [6] of 7 mg/kg.
`O=C1Cc2cc(OCCN3CCC(Cc4ccccc4)CC3)ccc2N1` [Ex. 194, 4-Benzyl-1-(2-(2-oxo-1,3-dihydroindol-5-oxy)ethyl)piperidine]: the IC50 in assay [3] is > 300 µM; in [4] it was 0.06 µM; in assay [5] it was > 300 µM. In assay [6], the ED50 was found to be 2.5 mg/kg.
Turning to `C[C@]12N[C@H](Cc3ccccc31)c1ccccc12` [MK801], the frequency of micturition result with micturition is recorded as “increased the frequency of micturition in rat”. Also, the “effect in animal models of anxiety” value in the assay with anxiety is “effective in a variety of animal models of anxiety”.
Take `NC12CC3CC(CC(C3)C1)C2` [amantadine]: in the assay on Parkinson's disease, the “antiparkinsonian-like activity in animals” value is on record as “showed antiparkinsonian-like activity in animals”.
As to `CC12CC3CC(C)(C1)CC(N)(C3)C2` [memantine], the “antiparkinsonian-like activity in animals” value in the assay on Parkinson's disease is “showed antiparkinsonian-like activity in animals”.
